Laboratory results as given in US4221794A, “Method of imparting immunomodulating and antiviral activity” (Newport Pharmaceuticals International, Inc., priority 1979, dated 1980).
Entries after “also recorded” stand apart in the source; their conditions may differ.

Key:
[1] = test system: Herpes virus; experiment: Anti-herpes activity, plaque assay (Table 3); format: cell-based, herpes hominis type 2 (Vero cells); conditions: for Plaques (PFU) Percent Inhibition: Test 15-150 μg/ml; for reduce plaque formation caused by Herpes Simplex virus: concentrations less than 100 μg/ml
Excerpt: Anti-Herpes Activity--(Plaque Assay)
The infection of tissue culture cells by Herpes virus causes cell lysis. After a period of time these lysed cells are visualized as a tiny clear area (plaque) on a layer of cells. The incorporation of a test substance into the media will reduce the number of plaques if it is capable of preventing virus replication. The method is as follows:
There was employed herpes hominis type 2 purchased from American Type Culture Collection (ATCC), Bethesda, Maryland, ATCC #VR 540, Lot 3D. The lyophilized viral suspension was reconstituted with 1 ml sterile distilled H2 O. The virus was passed twice through HeLa-cell monolayers. The tissue-culture supernates were pooled, dispensed in 1-ml aliquots, and stored at -70° C.
Vero cells in log-growth phase were subcultured at a concentration of 1×10^5 cells/ml in 50-ml Falcon flasks in Eagle's Minimum Essential Medium (MEM), supplemented with 10% fetal calf serum (FCS) and antibiotics. Media were changed the day following planting. The Vero monolayers reached confluence by the second day after planting and with the cells in log phase, the cultures were used for the plaque assay.
Culture media were poured off and the monolayers were wahsed once with phosphate-buffered saline (PBS). Several different dilutions of the working-stock virus suspension were prepared and each culture flask was infected with 0.5 ml of one of the virus dilutions added to FCS-free medium. […] Controls were prepared with medium devoid of drug.
Virus adsorption was allowed to proceed for 2 hours at 37° C., during which time the cultures were rocked gently every 15 minutes. Then Media were poured off and the monolayers were washed once with 10 ml PBS.
Agarose was prepared at a concentration of 6% w/v in 50 ml PBS. A stock medium of MEM supplemented with 2% FCS was prepared. Drug was added to some of the stock medium at 150 μg/ml. The three solutions were maintained at 47° C. In addition, a 1:10 dilution of pooled human anti-herpes sera was readied. Just before the start of treatment, 15 ml of the agarose solution were added to 85 ml of medium. Another 15 ml of agarose were added to 85 ml of drug-medium.
Each of the washed monolayers in one group of experiments was treated either with 5 ml of agarose-medium or with 5 ml of agarose-drug-medium. In another group of experiments, each monolayer was treated either with 0.2 ml of anti-herpes sera in 5 ml of stock medium, or with 0.2 ml of anti-herpes sera in 5 ml of drug-medium. The anti-herpes sera were used in place of agarose to localize plaques by neutralizing any free virus in the medium. The flasks were allowed to remain at room temperature for 5 minutes, after which they were incubated at 37° C. for 2 days. Triplicate cultures were used for most treatment groups.
Ten ml of PBS then were added to each flask. Overlays were shaken gently and then were poured out of the flasks. The monolayers were stained with a solution 0.5% w/v crystal violet in 50% methanol in triple-distilled H2 O.
Plaques were counted either directly by transmitted fluorescent light and macroviewing, or by the use of light microscopy for microplaques. Microplaques were counted by averaging three fields per experimental group under 150×magnification.

[2] = test system: spleen cells; experiment: In vivo treatment of mice: effect on in vitro Con A stimulation of spleen cell proliferation; parameters: species or system male Balb/C mice
Method: The purpose of this study was to determine the effects of in vivo treatment of mice with the compounds NPT 15392 and 15410 on the subsequent activity of spleen cells isolated from these animals and evaluated in vitro for their proliferative response to the mitogen, Concanavalin A (Con A).
Nine male Balb/C mice, 8-9 weeks old, weighing 18-20 gms were divided into three groups. One group was treated twice daily (for 1 day), in the morning and afternoon, with an oral dose of NPT 15392 at 10 mg/kg. The second group was similarly treated with NPT 15410 at 20 mg/kg. A third group, dosed with saline served as a placebo control.
The following day, each group was sacrificed and the spleens removed and pooled. The spleens were minced and the cells washed in RPMI-1640 medium (Grand Island Biologicals) supplemental with 2 mm glutamine and antibiotics. The cell concentration of each preparation was determined by a Coulter counter and adjusted to 5×10^6 cells/ml with RPMI medium.
Microtiter assays were carried out in 0.2 ml incubations, containing 5×10^5 cells and Con A or Con A and compounds at the indicated concentrations. All assays were performed with 6 replicates and compared with a blank assay containing only cells. The assay plates were incubated at 37° in 5% CO2 for 4 days. During the final 18-20 hours of incubation, 0.5 ml of ^3 HTdR (10 μCi/ml, 6 Ci /m mole) were added to each culture. The cultures were harvested with a multiple automatic sample harvester (MASH) unit and the incorporated ^3 HTdR determined with a Beckman LS 8000 liquid scintillation counter, as a measure of cell proliferation. The results are tabulated as the ratio of the activity in the Con A or Con A and compound treated cultures to the blank cultures.

[3] = test system: influenza virus; experiment: Anti-influenza activity (overall); format: cell-based, several strains of A and B sub-types; conditions: for inhibit the replication of different strains of influenza virus (number of strains): concentrations ranging from 1-150 μg/ml
[4] = Toxicity in mice; conditions: for LD50: mouse, in vivo
[5] = Con A 5 μg/ml (suboptimal), oral 15392 10 mg/kg, 15410 20 mg/kg

Row | Compound | inhibition of replication of Herpes Simplex virus (in words) [1] | Plaques (PFU) Percent Inhibition [1] [%] | reduce plaque formation caused by Herpes Simplex virus [1] [%] | response of spleen cells to Con A after in vivo treatment (in words) [2, 5] | response of spleen cells to Con A after in vivo treatment (in words) ([2]; Con A 10 μg/ml (more optimal)) | anti-influenza activity (in words) ([3]; compound by itself) | inhibit the replication of different strains of influenza virus (number of strains) [3] | drug related mortality ([4]; mice, doses of 1000 mg/kg) | potentiation of anti-influenza activity by DIP.PAcBA salt [3] | LD50 [4] [mg/kg] | LD50 ([4]; sc) [mg/kg]
1 | CCCCCC[C@H]([C@H](C)O)n1cnc2c(=O)[nH]cnc21 (relative stereo) [NPT 15392, ERYTHRO-9-(2-HYDROXY-3-NONYL)HYPOXANTHINE] | shown to inhibit the replication of Herpes Simplex virus | 98 | > 90 | increases the subsequent response of the spleen cells | No significant differences | significant anti-influenza activity | at least 4 different strains | no drug related mortality was noted |  |  | 
2 | CCCCCC[C@H]([C@H](C)O)n1cnc2c(=O)[nH]cnc21 (relative stereo) [NPT 15410] | shown to inhibit the replication of Herpes Simplex virus | 98 | > 90 | increases the subsequent response of the spleen cells | No significant differences |  | at least 4 different strains |  | does not potentiate the anti-influenza activity; also recorded: equally active | 4300 | 4900
